Laboratory results reported in patent US4556565A, “Sweetener composition, process for making the same, and comestibles comprising said sweetener composition” (priority 1983, dated 1985).
Where a SMILES comes first, the peptide text is derived from it.

What was measured:
bacteria in the mouth = details: cited from earlier work
[1] = cited from earlier work
[2] = Residual APM in chewing gum on standing at 32° C.; format: physicochemical; details: calcium carbonate in the chewing gum base
[3] = Cold water solubility test (time to dissolve); format: physicochemical; details: 15 g/100 ml of water, 10° C., magnetic stirrer (3 turns/sec)
Description: A magnetic stirrer (3 turns/sec) was used to agitate each sample.

Row | Stability of APM in chewing gum containing calcium carbonate [2] | Cold water solubility of sweetener compositions [3] [s] | SMILES | Dental caries causing effect / bacterial action in the mouth (bacteria in the mouth) | Dispersibility or solubility in water [1]
1 | – | – | OC[C@@H](O)[C@@H](O[C@H]1O[C@H](CO)[C@@H](O)[C@H](O)[C@H]1O)[C@H](O)[C@@H](O)CO [hydrogenated maltose] | not subjected to the bacterial action in the mouth | –
2 | rapidly decomposed by calcium carbonate | 900 | COC(=O)[C@H](Cc1ccccc1)NC(=O)[C@@H](N)CC(=O)O [APM, L-aspartyl-L-phenylalanine methyl ester] (H-Asp-Phe-OMe) | low dental caries causing effect | low dispersibility or solubility in water
